Measurements as given in patent publication US8551721B2, “Bioluminescent detection of cyanohydroxy benzothiazole compounds” (Promega Corporation, priority 2008, dated 2013).

Legend:
Assay type in all cases: biochemical
Conditions in all cases: 2 hour incubation at 37° C., plus vs minus UDPGA, background corrected
UGT 1A10 = biological target: T1, UGT 1A10 (Homo sapiens, UniProt Q9HAW8); test: UGT activity: utilization of substrate by recombinant UGT 1A10 Supersomes
T1 construct: purchased BD Gentest; host or cells: insect cells (microsomes)
T1 sequence (Q9HAW8 26-530): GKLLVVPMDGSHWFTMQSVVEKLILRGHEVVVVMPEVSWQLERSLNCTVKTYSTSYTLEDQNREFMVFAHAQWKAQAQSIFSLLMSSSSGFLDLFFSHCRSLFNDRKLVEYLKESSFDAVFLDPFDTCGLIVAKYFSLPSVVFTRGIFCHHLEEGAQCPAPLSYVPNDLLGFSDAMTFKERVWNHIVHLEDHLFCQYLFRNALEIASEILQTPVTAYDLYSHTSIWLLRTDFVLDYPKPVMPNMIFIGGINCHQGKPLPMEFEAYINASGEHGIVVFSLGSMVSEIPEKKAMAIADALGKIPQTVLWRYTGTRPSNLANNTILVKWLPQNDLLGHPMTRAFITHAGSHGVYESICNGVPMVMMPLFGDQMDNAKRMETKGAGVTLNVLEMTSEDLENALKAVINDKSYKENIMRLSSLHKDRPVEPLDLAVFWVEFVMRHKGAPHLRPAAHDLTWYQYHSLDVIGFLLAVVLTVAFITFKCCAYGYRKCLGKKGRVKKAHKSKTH
Experimental: (§1) The invention includes a method of determining activity of the uridine 5′-diphospho-glucuronosyltransferase (UDP-glucuronosyltransferase, or UGT) family enzymes in vitro. Briefly, UGT enzymes from overexpressed insect microsomes (Supersomes™, BD Gentest™) or animal tissue microsomes (Xenotech, BD Gentest™) were incubated with a cyanobenzothiazole substrate of the invention and the cofactor UDP-glucuronic acid (UDPGA) at 37° C. in buffer at physiological pH containing MgCl2 and alamethicin (typically, 50 mM TES, pH 7.5, 8 mM MgCl2, 4 mM UDPGA (Sigma) and 25 μg/mL alamethicin (Sigma)). Following the UGT enzyme reaction, an equal volume of P450-Glo Luciferin Detection Reagent (Promega) containing 15-30 mM D-cysteine-HCl.H2O (Sigma) was added and the plate was mixed and incubated at room temperature, typically for 20-30 minutes. […]
(§2) During this incubation, the cysteine reacts with the cyanobenzathiozole substrate to yield a D-luciferin derivative. […] Therefore, activity of the UGT enzyme can be measured by analyzing the difference (lower or no output) in relative light units (RLU) of a sample in which glucuronidation occurs compared to a sample that was run under the same conditions with no added UDPGA cofactor. […]
(§3) Reactions were assembled in a white 96-well plate. […] After the incubation was completed, the plate was read on a Veritas™ luminometer (Turner BioSystems, Inc.; Sunnyvale, Calif.). […]

UGT 1A8 = biological target: T2, UGT 1A8 (Homo sapiens, UniProt Q9HAW9); test: UGT activity: utilization of substrate by recombinant UGT 1A8 Supersomes
T2 construct: purchased BD Gentest; host or cells: insect cells (microsomes)
T2 sequence (Q9HAW9 26-530): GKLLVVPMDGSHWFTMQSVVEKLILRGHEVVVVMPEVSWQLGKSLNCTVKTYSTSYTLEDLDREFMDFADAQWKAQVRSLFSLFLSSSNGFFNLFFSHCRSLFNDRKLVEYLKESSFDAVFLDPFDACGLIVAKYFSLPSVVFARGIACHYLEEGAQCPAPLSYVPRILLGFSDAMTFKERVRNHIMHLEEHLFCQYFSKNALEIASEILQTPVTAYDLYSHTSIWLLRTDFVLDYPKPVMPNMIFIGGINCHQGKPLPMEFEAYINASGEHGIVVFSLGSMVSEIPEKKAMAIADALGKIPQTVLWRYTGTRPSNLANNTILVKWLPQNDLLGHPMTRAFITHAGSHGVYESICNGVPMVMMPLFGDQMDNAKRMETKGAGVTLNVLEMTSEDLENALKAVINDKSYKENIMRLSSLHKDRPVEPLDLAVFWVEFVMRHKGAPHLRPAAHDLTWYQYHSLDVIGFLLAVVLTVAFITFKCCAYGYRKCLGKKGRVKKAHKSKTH
Experimental: as §1, §2, §3

UGT 1A1 = biological target: T3, UGT 1A1 (Homo sapiens, UniProt P22309); test: UGT activity: utilization of substrate by recombinant UGT 1A1 Supersomes
T3 construct: purchased BD Gentest; host or cells: insect cells (microsomes)
T3 sequence (P22309 26-533): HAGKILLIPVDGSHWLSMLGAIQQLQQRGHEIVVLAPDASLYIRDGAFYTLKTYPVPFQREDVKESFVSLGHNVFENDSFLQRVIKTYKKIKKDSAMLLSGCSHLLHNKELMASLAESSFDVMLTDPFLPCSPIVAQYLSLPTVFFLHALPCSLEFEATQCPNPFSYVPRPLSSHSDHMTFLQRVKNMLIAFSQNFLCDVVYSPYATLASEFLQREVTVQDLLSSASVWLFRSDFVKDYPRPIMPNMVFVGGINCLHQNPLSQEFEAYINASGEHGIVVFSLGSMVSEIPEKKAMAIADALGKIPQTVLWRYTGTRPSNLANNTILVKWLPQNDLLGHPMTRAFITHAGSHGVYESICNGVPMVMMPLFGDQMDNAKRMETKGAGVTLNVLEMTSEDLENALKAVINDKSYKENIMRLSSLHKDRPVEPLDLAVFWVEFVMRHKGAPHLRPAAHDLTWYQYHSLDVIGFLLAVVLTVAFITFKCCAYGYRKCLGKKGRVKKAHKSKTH
Experimental: as §1, §2, §3

Row | SMILES | % utilization by UGT 1A10 (UGT 1A10) | % utilization by UGT 1A8 (UGT 1A8) | % utilization by UGT 1A1 (UGT 1A1)
1 | Cc1cc(O)cc2sc(C3=NC(C(=O)O)CS3)nc12 (stereo not drawn) [compound 3478] | ≤ 15% | ≤ 15% | ≤ 15%
2 | Cc1cc(O)cc2sc(C#N)nc12 [compound 3138] | over 50% | over 50% | over 50%
